Data published in US12679825B2, “Crystalline and amorphous forms of a δ-opioid modulator” (Trevena, Inc., priority 2020, dated 2026).
“Also recorded” adds a separate entry of the source. Where two headings read alike, the source gives them in different places.

Columns and labels:
[1] = 14-day stability testing (XRPD, HPLC, appearance); assay type: physicochemical; parameters: key to XRPD after storage: CRY: Crystalline; conditions: 14 days; for Post-Storage Observations (appearance): input White solid (NE12); for 14-Day Stability, Solid Purity after storage: open vial, input 98.9% area
Procedure: Crystalline forms of the compound of Formula I, including the crystalline Form I, were analyzed regarding stability. Approximately 10 mg of free base Form I was subjected to 14-day stability testing under the following conditions to assess developability: • 40° C./75% RH (open vial); • Ambient light, temperature and humidity conditions (open vial).
After 2 weeks under the specified conditions, XRPD and HPLC analysis was carried out on the resultant solid material. The sample appearance was monitored over 14 days.

[2] = Potentiometric (pH-metric) LogP and logD profile; assay type: physicochemical; conditions: for logP: 25.0±0.2° C.
Procedure: Crystalline forms of the compound of Formula I, including the crystalline Form I, were analyzed using pKa and LogP. An automated titrator system with an incorporated UV-Vis spectrometer (SiriusT3™, Pion Inc.) was used to acquire the spectrometric and potentiometric data. The optical system consisted of a photodiode array detector with a deuterium lamp and a fiber optic dip probe.
The titrator module consisted of a temperature controller (by Peltier device with in-situ thermocouple), pH electrode, an overhead stirrer, and motorized dispensers for the automatic delivery of assay titrants and reagents via capillaries. The instrumentation was operated using SiriusT3Control software (V2.0). Data processing and generation of the reported pKa and logP values was carried out using SiriusT3Refine software (V2.0). The titrants used were 0.5 M hydrochloric acid and 0.5 M potassium hydroxide, standardized using potassium hydrogen phthalate. ACS or HPLC grade methanol cosolvent was used for pKa determination. Spectrophotometric experiments were carried out in the presence of a mid-range buffer solution (15 mM di-potassium hydrogen orthophosphate) or Neutral Linear Buffer™ to prevent uncontrolled pH-drift at mid-range pH. For logP assays, ACS or HPLC grade 1-octanol was used as the partition solvent.
All experiments were carried out at a controlled temperature of 25.0±0.2° C. The pH range of titration assays is set between pH 2.0 to pH 12.0 unless otherwise stated. Prior to use, 0.5 M KOH base titrant is standardized by the titration of approximately 15 mg of potassium hydrogen phthalate, in triplicate. 0.5 M HCl titrant is subsequently standardized against the base titrant. The assay media for pKa determination is kept at a constant ionic strength of 0.15 M KCl and under argon atmosphere.
0.79 mg of sample was weighed into a 5 mL glass assay vial and titrated in a pH-metric triple titration in the presence of octanol from pH 2.0-12.0 at concentrations of 1.5-0.5 mM. The partition ratios of octanol/water were 0.012:1, 0.038:1 and 0.517:1. LogP was determined by comparing the pKa in water with the apparent pKa in the presence of octanol. The pH-metric logP experiment was conducted at 25.0±0.2° C. A lipophilicity profile (logD vs. pH) of the compound was calculated from the experimentally determined pKa and logP. The logD values are detailed in Table 12.

Decrease in purity after storage (HPLC) ([1]; 40° C./75% RH and ambient conditions): ≤ 0.3 % area
14-Day Stability, form by XRPD ([1]; 40° C./75% RH): retained; also recorded: Form I
XRPD after storage ([1]; 40° C./75% RH): CRY
Post-Storage Observations (appearance) ([1]; 40° C./75% RH): White solid (NE12)
14-Day Stability, Solid Purity after storage ([1]; 40° C./75% RH): 99.0 % area
14-Day Stability, Solid Purity after storage ([1]; Ambient light, temperature and humidity): 98.6 % area
14-Day Stability, form by XRPD ([1]; Ambient): retained; also recorded: Form I
XRPD after storage ([1]; Ambient): CRY
Post-Storage Observations (appearance) ([1]; Ambient): White solid (NE12)
logD ([2]; 1-octanol/water, pH 5.000): 1.2
logP ([2]; octanol/water, read-out: LogP (Potentiometric), cationic species): 0.6 ± 0.03
logP ([2]; octanol/water, read-out: LogP (Potentiometric), neutral species): 3.81 ± 0.02
logD ([2]; octanol/water, pH 1.2, pH 1.200, Stomach pH): 0.6
logD ([2]; octanol/water, pH 6.5, pH 6.500): 2.55
logD ([2]; octanol/water, pH 7.4, pH 7.400, Blood pH): 3.31
logD ([2]; octanol/water, pH 1.000): 0.6
logD ([2]; octanol/water, pH 3.000): 0.61
logD ([2]; octanol/water, pH 4.000): 0.71
logD ([2]; octanol/water, pH 6.000): 2.08
logD ([2]; octanol/water, pH 7.000): 3
logD ([2]; octanol/water, pH 8.000): 3.62
logD ([2]; octanol/water, pH 9.000): 3.79
logD ([2]; octanol/water, pH 10.000): 3.81
logD ([2]; octanol/water, pH 11.000): 3.81
logD ([2]; octanol/water, pH 12.000): 3.81
Structure (SMILES): COCCOc1cccc([C@@H]2CCN(CCn3cccc3)[C@H](C)[C@H]2COc2ccc3c(c2)C(=O)NC3)c1 [crystalline Form I, (−)-6-{[(trans, trans)-4-[3-(2-methoxyethoxy)phenyl]-2-methyl-1-[2-(1H-pyrrol-1-yl)ethyl]piperidin-3-yl]methoxy}-2,3-dihydro-1H-isoindol-1-one]
